In patent US20220380318A1, “SUBSTITUTED SULFONYL AMIDES FOR CONTROLLING ANIMAL PESTS” (Bayer Aktiengesellschaft, priority 2019, published 2022):

Columns and labels:
Format in all cases: in vivo
[1] = system: Meloidogyne incognita; assay: Meloidogyne incognita test (sand, acetone formulation, gall formation after 14 days); conditions: 336 h, application rate 4 ppm, lettuce in sand, read-out: nematicidal efficacy in % (formation of galls)
Procedure: Meloidouyne incognita Test Solvent: 125.0 parts by weight of acetone To produce an appropriate active ingredient formulation, 1 part by weight of active ingredient is mixed with the stated amount of solvent and the concentrate is diluted to the desired concentration with water. Vessels are filled with sand, active ingredient solution, an egg/larvae suspension of the southern root-knot nematode (Meloidogyne incognita) and lettuce seeds. The lettuce seeds germinate and the plants develop. The galls develop on the roots. After 14 days, the nematicidal efficacy in % is determined by the formation of galls. 100% means that no galls were found; 0% means that the number of galls on the treated plants corresponds to the untreated control.

[2] = system: Meloidogyne incognita; assay: Meloidogyne incognita test (soil drench, gall formation after 21 days); conditions: 504 h, lettuce, read-out: nematicidal efficacy in % (formation of galls); for pest or weed control at 0.125 ppm: application rate 0.125 ppm; for pest or weed control at 0.25 ppm: application rate 0.25 ppm; for pest or weed control at 1 ppm: application rate 1 ppm
Procedure: (§1) Meloidogyne incognita Test Solvent: 7 parts by weight of dimethylformamide Emulsifier: 2.5 parts by weight of alkylaryl polyglycol ether To produce a suitable active ingredient formulation, 1 part by weight of active ingredient is mixed with the specified amounts of solvent and emulsifier, and the concentrate is diluted with water to the desired concentration, it being necessary to take account of the volume of soil which is drenched. It should be ensured that a concentration of 20 ppm of emulsifier in the soil is not exceeded. To produce further test concentrations, water is used for dilution. Pots filled with soil (loamy sand) are watered with the active ingredient solution. An egg/larvae suspension of the southern root-knot nematode (Meloidogyne incognita) is added, lettuce seeds are scattered over the surface of the soil, and they are covered over with quartz sand. The lettuce seeds germinate and the plants develop. The galls develop on the roots. After 21 days, the nematicidal efficacy in % is determined by the formation of galls. 100% means that no galls have been found; 0% means that the number of galls on the treated plants corresponds to the untreated control.

[3] = system: Meloidogyne incognita; assay: Meloidogyne incognita test (MELGIN), comparison with prior art; conditions: 504 h, after 21 days
Procedure: as §1, with “Test (MELGIN)” for “Test”

[4] = system: Heterodera pallida; assay: Heterodera pallida - soil mixing test (HETDPA); conditions: Globodera pallida, 1008 h, cysts on potato roots after six weeks, Abbott formula, read-out: % Efficacy
Procedure: Heterodera pallida-Soil Mixing Test ([…]) Solvent: 4 parts by weight of acetone Emulsifier: 1 part by weight of alkylaryl polyglycol ether To produce a suitable preparation of active ingredient, 1 part by weight of active ingredient is mixed with the stated amounts of solvent and emulsifier, and the concentrate is diluted with water to the desired concentration. This active ingredient formulation is mixed with soil (loamy sand). The stated concentration refers to the amount of active ingredient per volume unit of soil (ppm=mg/l). 40 cysts of the white potato nematode (Heterodera pallida, 250-275 larvae/cysts) are introduced into 500 ml of this active ingredient soil and mixed. The mixture is introduced into pots and planted in each case with a one-week-old potato seedling (Solanum tuberosum). After six weeks, the potato roots are checked for cysts and the average number per pot is calculated as efficacy by the Abbott formula: [formula] B=treated plants K=untreated control plants

Row | SMILES | pest or weed control at 4 ppm [1] [%] | pest or weed control at 0.125 ppm [2] [%] | pest or weed control at 0.25 ppm [2] [%] | pest or weed control at 1 ppm [2] [%] | also measured
1 | COc1ccc(Cl)c(S(=O)(=O)NC(=O)c2nc(Cl)n([C@H]3C[C@@H]3C(F)(F)F)c2Br)c1 (racemic) [I-01] | 100 | 90 | 97 | 100 | Emax at 0.015625 ppm ([3]; read-out: % Efficacy): 58.3%; nematicidal efficacy (% gall reduction) at 0.03125 ppm [3]: 95%; Emax at 0.25 ppm [4]: 75%; Emax at 0.5 ppm [4]: 90%; Emax at 1 ppm [4]: 100%
2 | O=C(NS(=O)(=O)c1cc(Cl)ccc1Cl)c1nc(Cl)n([C@H]2C[C@@H]2C(F)(F)F)c1Br (racemic) [I-02] | 100 | 90 | 90 | 100 | –
3 | Cc1ccccc1S(=O)(=O)NC(=O)c1nc(Cl)n([C@H]2C[C@@H]2C(F)(F)F)c1Br (racemic) [I-03] | 100 | 90 | 100 | 100 | –
4 | CCOc1ccc(Cl)c(S(=O)(=O)NC(=O)c2nc(Cl)n([C@H]3C[C@@H]3C(F)(F)F)c2Br)c1 (racemic) [I-04] | 100 | 90 | 100 | 100 | nematicidal efficacy (% gall reduction) at 0.03125 ppm [3]: 97%
5 | COc1ccc(Br)c(S(=O)(=O)NC(=O)c2nc(Cl)n([C@H]3C[C@@H]3C(F)(F)F)c2Br)c1 (racemic) [I-05] | 100 | 100 | 100 | 100 | –
6 | COc1ccc(Cl)c(S(=O)(=O)NC(=O)c2nc(Br)n([C@H]3C[C@@H]3C(F)(F)F)c2Br)c1 (racemic) [I-06] | 100 | 100 | 100 | 100 | Emax at 0.015625 ppm ([3]; read-out: % Efficacy): 65%; nematicidal efficacy (% gall reduction) at 0.03125 ppm [3]: 92.5%
7 | COc1ccc(Br)c(S(=O)(=O)NC(=O)c2nc(Br)n([C@H]3C[C@@H]3C(F)(F)F)c2Br)c1 (racemic) [I-07] | 100 | 100 | 100 | 100 | Emax at 0.03125 ppm ([3]; read-out: % Efficacy): 90%; nematicidal efficacy (% gall reduction) at 0.0625 ppm ([3]; 0.0625 ppm): 100%; nematicidal efficacy (% gall reduction) at 0.125 ppm [3]: 100%
8 | Cc1ccccc1S(=O)(=O)NC(=O)c1nc(Br)n([C@H]2C[C@@H]2C(F)(F)F)c1Br (racemic) [I-08] | 100 | – | 100 | 100 | –
9 | CCOc1ccc(Cl)c(S(=O)(=O)NC(=O)c2nc(Br)n([C@H]3C[C@@H]3C(F)(F)F)c2Br)c1 (racemic) [I-09] | 100 | 90 | 100 | 100 | –
10 | O=C(NS(=O)(=O)c1cc(OCC(F)F)ccc1Cl)c1nc(Br)n([C@@H]2C[C@H]2C(F)(F)F)c1Br (racemic) [I-10] | 100 | 100 | – | – | –
11 | O=C(NS(=O)(=O)c1cc(OCC(F)F)ccc1Cl)c1nc(Cl)n([C@@H]2C[C@H]2C(F)(F)F)c1Br (racemic) [I-11] | 100 | 98 | – | – | –
12 | COc1ccc(Cl)c(S(=O)(=O)NC(=O)c2nc(Br)n([C@H]3C[C@@H]3C(F)(F)F)c2Cl)c1 (racemic) [I-12] | 100 | 100 | – | – | nematicidal efficacy (% gall reduction) at 0.125 ppm [3]: 100%
13 | O=C(NS(=O)(=O)c1ccccc1Cl)c1nc(Br)n([C@@H]2C[C@H]2C(F)(F)F)c1Cl (racemic) [I-13] | 100 | – | – | 80 | nematicidal efficacy (% gall reduction) at 0.5 ppm [3]: 70%
14 | O=C(NS(=O)(=O)c1ccccc1Cl)c1nc(Br)n(CCC(F)(F)F)c1Cl [Ex. I-440, reference compound] | – | – | – | – | nematicidal efficacy (% gall reduction) at 0.125 ppm [3]: 0%; nematicidal efficacy (% gall reduction) at 0.5 ppm [3]: 0%
15 | CCOc1ccc(Cl)c(S(=O)(=O)NC(=O)c2nc(Cl)n([C@@H]3C[C@H]3C(F)(F)F)c2Cl)c1 [Ex. I-459, reference compound] | – | – | – | – | nematicidal efficacy (% gall reduction) at 0.03125 ppm [3]: 10%
16 | COc1ccc(Br)c(S(=O)(=O)NC(=O)c2nc(Cl)n([C@@H]3C[C@H]3C(F)(F)F)c2Cl)c1 [Ex. I-465, reference compound] | – | – | – | – | Emax at 0.03125 ppm ([3]; read-out: % Efficacy): 0%; Emax at 0.0625 ppm ([3]; 0.0625 ppm, read-out: % Efficacy): 25%; nematicidal efficacy (% gall reduction) at 0.125 ppm [3]: 95%
17 | COc1ccc(Cl)c(S(=O)(=O)NC(=O)c2nc(Cl)n([C@@H]3C[C@H]3C(F)(F)F)c2Cl)c1 [Ex. I-470, reference compound] | – | – | – | – | Emax at 0.015625 ppm ([3]; read-out: % Efficacy): 0%; nematicidal efficacy (% gall reduction) at 0.03125 ppm [3]: 48%; Emax at 0.25 ppm [4]: 0%; Emax at 0.5 ppm [4]: 0%; Emax at 1 ppm [4]: 70%
